From ChEMBL document CHEMBL1131517, “4,4,14 alpha-trimethyl 9 beta,19-cyclo-5 alpha-26-homocholesta-24,26-dien-3 beta-ol: a potent mechanism-based inactivator of delta 24(25)- to delta 25(27)-sterol methyl transferase” (Bioorg Med Chem Lett, 1998)

Key:
Prototheca wickerhamii = test: Compound was tested for inactivation of sterol methyl transferase( SMT) enzyme in Prototheca wickerhamii
[1] = Compound was tested for inactivation of sterol methyl transferase (SMT) enzyme in Prototheca wickerhamii

## C=C/C(C)=C/CC[C@@H](C)C1CC[C@@]2(C)C3CCC4C(C)(C)C(O)CCC45CC35CCC12C (some centres not stated)
Prototheca wickerhamii
  K inact: 0.3 min⁻¹
[1]
  Ki: 30 µM
